# Experimental data published in a melting point compilation (Tetko et al.).
row,melting point,Compound
1,174 °C,COc1ccccc1/C=C(\C(N)=O)c1nc2ccccc2s1
2,169 °C,CC(=O)Nc1ccc(C(C)=O)cc1
3,126 °C,O=[N+]([O-])c1ccccc1-c1ccccc1[N+](=O)[O-]
4,55 to 57 °C,CN(C)CCCOc1ccccc1CO
5,92 to 95 °C,CCOC(=O)CC[C@H](NC(=O)c1ccc([N+](=O)[O-])cc1)C(=O)OCC
6,77 °C,CC(=O)n1nc(C(F)(F)F)cc1-c1ccccc1
7,159 °C,C/C(=C\C=C\c1ccccc1)C(=O)O
8,162 to 165 °C,CC(=NO)c1ccn(S(=O)(=O)c2ccccc2)c1
9,186 °C,O=C(C1=NOC2C(=O)N(c3ccc(Br)cc3)C(=O)C12)c1ccc2ccccc2c1 (stereo unspecified)
10,258 °C,Nc1ccc(C(c2ccccc2)(c2ccccc2)c2ccccc2)cc1
11,232 to 235 °C,O=C(CCl)N1CCc2c([nH]c3ccccc23)C1C(F)(F)F (stereo unspecified)
12,138 °C,Cc1ccccc1C(=O)Cc1ccccc1C(=O)O
13,38 °C,O=C(Cl)C=Cc1ccccc1Cl
14,149 °C,COc1cc(C2Nn3c(nnc3-c3ccccc3)S2)ccc1O (stereo unspecified)
15,42 to 44 °C,CCC(=O)N1C(=O)OC[C@@H]1Cc1ccccc1
16,78 °C,Cc1nn(Cc2ccccc2)c(N)c1C#N
17,158 °C,CC(=O)OCN1C(=O)NC(c2ccccc2)(c2ccccc2)C1=O
18,146 to 149 °C,O=C(O)[C@@H]1Cc2ccccc2CN1C(=O)OCC1c2ccccc2-c2ccccc21
19,124 °C,CC(C)(C)OC(=O)N[C@@H](Cc1cccc(C#N)c1)C(=O)O
20,250 °C,CC(=O)Nc1ccccc1CCc1ccccc1NC(C)=O
21,132 °C,CCCCCCCCc1ccc(NC(=O)c2ccc(OC)cc2)cc1
22,169 °C,O=C(Nc1ccc(Oc2ccc(Cl)cc2)c(Cl)c1)c1cc(I)cc(I)c1O
23,169 to 171 °C,O=C(O)c1cccc2cccc(Br)c12
24,138 °C,O=C(c1ccc2c3c(cccc13)CC2)C(O)c1ccccc1 (stereo unspecified)
25,193 to 203 °C,Nc1ccc(SCC(=O)O)cc1

row,melting point,Compound
1,149 °C,NNC(=O)c1ccc(N)c(N)c1
2,320 to 322 °C,O=c1[nH]c(=S)[nH]c2ccccc12
3,100 to 102 °C,O=C(O)Cc1ccccc1C(F)(F)F
4,250 °C,COc1ccc(C=C2C(=O)NN=C2c2c(O)c3ccccc3n(C)c2=O)cc1
5,122 °C,Cc1c2ccccc2c(C)c2c1ccc1ccccc12
6,241 to 242 °C,COc1ccccc1Nc1[nH]c(=S)nnc1-c1ccccc1
7,127 °C,CC12CCC(C(=CC(Cc3ccccc3)C(=O)O)C1=O)C2(C)C (stereo unspecified)
8,51 °C,C/C(=C\C(=O)c1ccc(F)cc1)c1ccc(F)cc1
9,189 °C,Nc1cccc2c(O)cccc12
10,137 to 138 °C,CC1(C)OC(C)(C(O)(Cc2ccccc2)Cc2ccccc2)CCC1C(=O)O (stereo unspecified)
11,83 °C,CC1(C)C(C(=O)c2ccccc2)=Nc2ccccc21
12,-13 °C,COC(=O)c1ccccc1[N+](=O)[O-]
13,88 °C,O=C(OCC(=O)N1CCCCC1)c1ccccc1
14,115 to 118 °C,C=CCc1cc(C(C)=O)ccc1O
15,135 to 137 °C,CC(O[S+]([O-])C(C)(C)C)C(O)(c1ccccc1)c1ccccc1 (stereo unspecified)
16,21.7 °C,Cc1ccccc1Oc1ccccc1
17,182 °C,c1ccc(-c2sc(-c3ccccc3)c(-c3ccccc3)c2-c2ccccc2)cc1
18,169 °C,Cc1cccc(C)c1NC(=O)C=CC(=O)O
19,199 to 201 °C,O=C(O)c1cnn2ccccc12
20,58 °C,CCCCn1c2ccccc2c2ccccc21
21,123 to 128 °C,CC(C(=O)O)c1ccc(CBr)cc1 (stereo unspecified)
22,> 200 °C,O=C(CNc1ccccc1)c1ccc(C(=O)CNc2ccccc2)cc1
23,185 to 187 °C,CC(=O)Nc1cccc(-n2nnnc2S)c1
24,165 to 166 °C,Cc1c(C(=O)O)cnn1-c1ccc(F)cc1

# The remaining lines, values behind:
row,Compound,melting point
1,CC(C)(C)OC(=O)N1CCN(Cc2cccc(C=O)c2)CC1,67 to 68 °C
2,CSc1nc2ncc(C(=O)O)c(N)n2n1,278 to 281 °C
3,O=Cc1ccc2sccc2c1,53 to 54 °C
4,O=C(O)c1cc(F)c(Cl)nc1Cl,154 to 155 °C
5,O=C(O)c1cc(Cl)nc(Cl)c1,210 to 211 °C
6,CCOC(=O)C=Cc1ccc(OC)c(OC)c1Cl,68 to 69 °C
7,Oc1c(F)cc(F)cc1F,49.5 °C
8,C=CCC(/C=C1\C(=O)C2(C)CCC1C2(C)C)(/C=C1\C(=O)C2(C)CCC1C2(C)C)C(=O)OCC (stereo unspecified),148 °C
9,CCOC(=O)c1cc(-c2cccs2)nn1C,72 to 73 °C
10,O=[N+]([O-])c1cccc(F)c1,41 °C
11,Cc1nc(-c2ccc(CO)s2)cs1,67 to 69 °C
12,Cc1cc(C)c2c(=O)n(-c3ccc(Cl)cc3)c(S)nc2n1,324 to 326 °C
13,OCCc1ccccc1C(F)(F)F,2 to 3 °C
14,NC(=O)c1cc(Cl)cc(Cl)c1N,162 °C
15,Cc1ccc(N(SC(F)(Cl)Cl)S(=O)(=O)N(C)C)cc1,96 °C
16,CN(C)CCCN,-60 °C
17,Clc1ccc(CBr)cc1,49 °C
18,CC(C)n1c(C(F)(F)F)nc2cc(C(=O)O)ccc21,172 to 176 °C
19,N#Cc1ccncc1Cl,72.5 °C
20,Br/C=C/Br,-6.5 °C
21,Cn1ccc2cc(N=C=O)ccc21,42.5 to 44.5 °C

row,Compound,melting point
1,O=C1c2ccccc2C(=O)C2CC3=C(CC=CC3)CC12 (stereo unspecified),155 °C
2,Cc1ccc(N=CN(C)C=Nc2ccc(C)cc2C)c(C)c1,86 °C
3,OCc1cc(Cl)ccc1O,90 to 91 °C
4,C#Cc1ccc(OC)cc1,28 to 30 °C
5,N#Cc1ccnc(N2CCCC2)c1,79 to 80 °C
6,CC(=O)NC(Cc1ccc2c(c1)OCO2)C(=O)O (stereo unspecified),92 °C
7,CN1CCOc2cc(C(=O)Cl)ccc21,96 to 100 °C
8,C=CCC1(CC(=C)Br)C(=O)NC(=O)NC1=O,168 °C
9,CCCC(C)C1(CC)C(=O)NC(=S)NC1=O (stereo unspecified),130 °C
10,Cc1ccc(C(N)=O)c(N)c1,147 to 148 °C
11,CCCCCCCCCCCCOC(=O)c1ccc(N)cc1,82 °C
12,COc1cc(C)c(C=O)cc1C,31 to 35 °C
13,O=[N+]([O-])c1ccccc1N=C=S,75 °C
14,Clc1c(Cl)c(Cl)c2c(c1Cl)OC1Cc3ccccc3C1O2 (stereo unspecified),159 °C
15,COc1ccc(C=O)cc1[N+](=O)[O-],99 °C
16,Cc1ccc(S(=O)(=O)OC(C(F)(F)F)C(F)(F)F)cc1,39 to 40 °C
17,CC1CCCC(C)(C)C1 (stereo unspecified),-65.7 °C
18,O=C(O)C1=CCCC1,119 °C
19,CCCCCCCCC(=O)OCC,-36.7 °C
20,CCOC(=O)C1=C(C)NC(C)=C(C(=O)OC)C1c1cccc([N+](=O)[O-])c1 (stereo unspecified),158 °C
21,Nc1cc(Cl)c(Cl)c(Cl)c1,99 °C

row,Compound,melting point
1,O=[N+]([O-])c1ccsc1Cl,51 to 52 °C
2,Clc1nc(Cl)nc(Cl)n1,154 °C
3,CCC(=O)c1ccc[nH]1,50 °C
4,O=C1OC(=O)C2CC12 (stereo unspecified),54 to 60 °C
5,CC(C)(C)NC(N)=O,178 to 182 °C
6,CCN(CC)CC#CCOC(=O)C(O)(c1ccccc1)C1CCCCC1 (stereo unspecified),130 °C
7,O=C1CNC(=O)CN1,300 °C
8,O=S(=O)(O)CCNC(CO)(CO)CO,223 to 225 °C
9,CC1(C)C(C=C2CCSC2=O)C1C(=O)OCc1coc(Cc2ccccc2)c1 (stereo unspecified),31 °C
10,O=Cc1ccc(Br)cc1F,61 °C
11,COC(=O)c1c(C)n[nH]c1C,83 °C
12,O=C1CN=C(c2ccccc2)c2cc(Cl)ccc2N1CC1CC1,146 °C
13,OCc1ccccc1N1CCOCC1,54 to 57 °C
14,COc1ccc(C=C2C3=C(CCCC3)OC3=C2CCCC3)cc1,123 to 124 °C
15,CC(C)(C)SSC(C)(C)C,-5 °C
16,O=c1ccn(C2CCC(CO)O2)c(=O)[nH]1 (stereo unspecified),128 °C
17,S=C=Nc1ccc(N2CCOCC2)cc1,84 to 85 °C
18,COc1ccc(NN=C2C(=O)NC(=S)NC2=O)cc1,246 °C
19,Nc1ccc(-c2ccc(N)cc2)cc1,124 °C
20,COc1ccc([N+](=O)[O-])c(C(=O)O)c1,133 °C
21,CC1(c2ccccc2)C(=O)NC(=O)NC1=O,224 °C

row,Compound,melting point
1,Cc1nc2ccccc2c(=O)n1-c1ccccc1Cl,126 °C
2,COc1cc(OC)cc(C(C)=O)c1,40 °C
3,Cc1nc(CCl)c(C)o1,34 to 37 °C
4,O=C(CBr)c1cccc2c1OCCCO2,55 to 56 °C
5,CC(C)n1c(C(F)(F)F)nc2cc(C(=O)Cl)ccc21,102 °C
6,Cc1c(C)c(C)c(C(=O)O)c(C)c1C,210 °C
7,CCCCCC(O)c1ccc(O)c(O)c1 (stereo unspecified),109 °C
8,O=C1NCCN1c1ncc([N+](=O)[O-])s1,261 °C
9,CC(=O)Oc1cc(C)ccc1C1(C)CC(C)(C)c2ccc(C)cc2O1 (stereo unspecified),102 °C
10,N#Cc1sc2nc(-c3ccccc3)cc(C(F)(F)F)c2c1N,236 to 238 °C
11,O=c1[nH][nH]c(=O)c2cc3c(cc12)CCC3,310 °C
12,CCCCCCCCCCCCCCCCCCCCCCCCCC(=O)O,88.5 °C
13,CN1CCN(C(=O)OC2C3=C(SCCS3)C(=O)N2c2ccc3ccc(Cl)nc3n2)CC1 (stereo unspecified),280 °C
14,O=C(O)c1cccc(N2CCOCC2)n1,127 to 129 °C
15,CCN(CC)C(N)=O,66 to 71 °C
16,CCC(N)C(O)c1ccccc1 (stereo unspecified),79.5 °C
17,Cn1ncc2cc([N+](=O)[O-])ccc21,160 °C
18,O=S(=O)(Cl)Cc1ccc(Cl)cc1,95 °C
19,O=C(CO)[C@@H](O)[C@@H](O)[C@H](O)[C@H](O)CO,151 °C
